# Target: T1, GST-PLK1 (Homo sapiens, UniProt P53350)
# T1 construct: Full-length, active GST-PLK1 is purified from Sf9 insect cells; made in house; host or cells: Sf9 insect cells
# Experiment: Biochemical Characterization Assay: GST-PLK1 kinase HTRF assay with GST-p53 substrate
# Settings: full-length GST-PLK1, GST-p53 and ATP, 37° C. for 35 minutes, HTRF signal
# In short: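 Full-length GST-PLK1 from Sf9 cells (3 ug/mL stock) with full-length E. coli GST-p53 substrate in HEPES pH 7 buffer with MgCl2, TCEP, orthovanadate, BSA and Triton X-100; compound stocks 0.6 nM-4 mM in DMSO. Reaction 35 min at 37 °C, EDTA-stopped; phospho-p53 detected by HTRF (Eu anti-rabbit/APC anti-GST).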
# T1 sequence (P53350 whole entry): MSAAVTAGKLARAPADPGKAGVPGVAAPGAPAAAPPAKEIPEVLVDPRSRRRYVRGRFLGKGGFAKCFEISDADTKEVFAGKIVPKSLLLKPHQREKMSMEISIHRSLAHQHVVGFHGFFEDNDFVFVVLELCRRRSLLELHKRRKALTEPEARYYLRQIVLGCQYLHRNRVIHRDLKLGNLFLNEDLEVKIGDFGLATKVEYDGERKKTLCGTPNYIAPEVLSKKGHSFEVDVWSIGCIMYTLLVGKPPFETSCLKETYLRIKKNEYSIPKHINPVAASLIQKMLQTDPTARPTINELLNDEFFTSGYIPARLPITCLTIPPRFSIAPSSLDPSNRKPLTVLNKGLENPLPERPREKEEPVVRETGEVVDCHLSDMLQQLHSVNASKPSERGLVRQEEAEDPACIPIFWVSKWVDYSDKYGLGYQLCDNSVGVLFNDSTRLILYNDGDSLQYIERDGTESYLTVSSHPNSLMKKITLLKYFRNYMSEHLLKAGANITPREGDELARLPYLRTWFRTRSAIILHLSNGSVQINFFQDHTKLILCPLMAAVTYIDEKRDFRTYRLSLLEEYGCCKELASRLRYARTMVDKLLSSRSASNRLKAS
row,IC50,SMILES
1,> 5000 nM,"CC1CN(C2CCCC2)c2nc(Nc3ccc(OCc4ccccc4)cc3)ncc2N(C)C1=O (racemic) [I-75, (rac)-2-(4-Benzyloxy-phenylamino)-9-cyclopentyl-5,7-dimethyl-5,7,8,9-tetrahydro-pyrimido[4,5-b][1,4]diazepin-6-one]"
2,> 5000 nM,"CC1CN(C2CCCC2)c2nc(Nc3ccc4oc(-c5ccncc5)nc4c3)ncc2N(C)C1=O (racemic) [I-76, (rac)-9-Cyclopentyl-5,7-dimethyl-2-(2-pyridin-4-yl-benzooxazol-5-ylamino)-5,7,8,9-tetrahydro-pyrimido[4,5-b][1,4]diazepin-6-one]"
3,< 500 nM,"COc1cc(C(=O)NC2CCN(C)CC2)ccc1Nc1ncc2c(n1)N(C1CCCC1(C)C)CCC(=O)N2C (racemic) [I-59, (rac)-4-[9-(2,2-Dimethyl-cyclopentyl)-5-methyl-6-oxo-6,7,8,9-tetrahydro-5H-pyrimido[4,5-b][1,4]diazepin-2-ylamino]-3-methoxy-N-(1-methyl-piperidin-4-yl)-benzamide]"
4,< 500 nM,"COc1cc(C(=O)NC2CCN(C)CC2)ccc1Nc1ncc2c(n1)N(CC1CCCC1)CC(C)C(=O)N2C (racemic) [I-55, (rac)-4-(9-Cyclopentylmethyl-5,7-dimethyl-6-oxo-6,7,8,9-tetrahydro-5H-pyrimido[4,5-b][1,4]diazepin-2-ylamino)-3-methoxy-N-(1-methyl-piperidin-4-yl)-benzamide]"
5,500 to 5000 nM,"CCN1CCC(NC(=O)c2ccc(Nc3ncc4c(n3)N(C3CCCC3)CC(C)C(=O)N4C)cc2Cl)CC1 (racemic) [I-81, (rac)-2-Chloro-4-(9-cyclopentyl-5,7-dimethyl-6-oxo-6,7,8,9-tetrahydro-5H-pyrimido[4,5-b][1,4]diazepin-2-ylamino)-N-(1-ethyl-piperidin-4-yl)-benzamide]"
6,< 500 nM,"C=CCN1CC(C)C(=O)N(C)c2cnc(Nc3ccc(C(=O)NC4CCN(C)CC4)cc3OC)nc21 (racemic) [I-65, (rac)-4-(9-Allyl-5,7-dimethyl-6-oxo-6,7,8,9-tetrahydro-5H-pyrimido[4,5-b][1,4]diazepin-2-ylamino)-3-methoxy-N-(1-methyl-piperidin-4-yl)-benzamide]"
7,500 to 5000 nM,"CC1CN(C2CCCC2)c2nc(Nc3ccc(O)c(NC(=O)c4cccnc4)c3)ncc2N(C)C1=O (racemic) [I-47, (rac)-N-[5-(9-Cyclopentyl-5,7-dimethyl-6-oxo-6,7,8,9-tetrahydro-5H-pyrimido[4,5-b][1,4]diazepin-2-ylamino)-2-hydroxy-phenyl]-nicotinamide]"
8,< 500 nM,"CN1CCC(NC(=O)c2ccc(Nc3ncc4c(n3)N(C3CCCC3)CC(C)(C)C(=O)N4C)cc2)CC1 [I-50, 4-(9-Cyclopentyl-5,7,7-trimethyl-6-oxo-6,7,8,9-tetrahydro-5H-pyrimido[4,5-b][1,4]diazepin-2-ylamino)-N-(1-methyl-piperidin-4-yl)-benzamide]"
9,500 to 5000 nM,"COc1cc(C(=O)NC2CCN(C)CC2)ccc1Nc1ncc2c(n1)N(c1ccccc1)CC(C)C(=O)N2C (racemic) [I-51, (rac)-4-(5,7-Dimethyl-6-oxo-9-phenyl-6,7,8,9-tetrahydro-5H-pyrimido[4,5-b][1,4]diazepin-2-ylamino)-3-methoxy-N-(1-methyl-piperidin-4-yl)-benzamide]"
10,< 500 nM,"COc1cc(C(=O)NC2CCN(Cc3ccccc3)CC2)ccc1Nc1ncc2c(n1)N(C1CCCC1)CC(C)C(=O)N2C (racemic) [I-9, (rac)-N-(1-Benzyl-piperidin-4-yl)-4-(9-cyclopentyl-5,7-dimethyl-6-oxo-6,7,8,9-tetrahydro-5H-pyrimido[4,5-b][1,4]diazepin-2-ylamino)-3-methoxy-benzamide]"
11,< 500 nM,"Cc1cc(C(=O)NC2CCN(C)CC2)ccc1Nc1ncc2c(n1)N(C1CCCC1)CC(C)(C)C(=O)N2C [I-56, 4-(9-Cyclopentyl-5,7,7-trimethyl-6-oxo-6,7,8,9-tetrahydro-5H-pyrimido[4,5-b][1,4]diazepin-2-ylamino)-3-methyl-N-(1-methyl-piperidin-4-yl)-benzamide]"

# From US7517873B2, “Substituted pyrimidodiazepines” (Hoffman-La Roche Inc., priority 2007, dated 2009)
